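Growth conditions: 96-well plates. Treatment: test compound, 48 hours, 5 concentrations. Analysis: linear interpolation between bracketing concentrations; unreached endpoints set to highest concentration. GI50: concentration for 50% inhibition of growth.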 Activity calls are given as the source filed them. Cut-off read from the data, not from the text of the source: active = GI50 up to about 1.1 µM and inactive = higher.
Experiments:
Experiment in all cases: DTP human tumour cell line panel, 48 h
786-0 = test system: 786-0
CAKI-1 = test system: CAKI-1
EKVX = test system: EKVX
IGROV-1 = test system: IGROV-1
KM12 = test system: KM12
LOX IMVI = test system: LOX IMVI
LXFL 529 = test system: LXFL 529
M14 = test system: M14
OVCAR-8 = test system: OVCAR-8
RPMI-8226 = test system: RPMI-8226
SF-268 = test system: SF-268
SF-539 = test system: SF-539
SK-MEL-5 = test system: SK-MEL-5
SNB-19 = test system: SNB-19
U-251 = test system: U-251
UACC-257 = test system: UACC-257
UO-31 = test system: UO-31
HCC 2998 = test system: HCC 2998

Measured: GI50

CC(=O)OC1COC(N2CCc3cc([N+](=O)[O-])ccc32)C(OC(C)=O)C1OC(C)=O (configuration not stated)
inactive: 786-0 > 100 µM | CAKI-1 > 100 µM | EKVX > 100 µM | IGROV-1 > 100 µM | KM12 > 100 µM | LOX IMVI > 100 µM | LXFL 529 > 100 µM | M14 > 100 µM | OVCAR-8 > 100 µM | RPMI-8226 > 100 µM | SF-268 > 100 µM | SF-539 > 100 µM | SK-MEL-5 > 100 µM | SNB-19 > 100 µM | U-251 > 100 µM | UACC-257 > 100 µM | UO-31 > 100 µM

Cc1cc(C)c(N)c(C)c1N
inactive: 786-0 > 100 µM | EKVX > 100 µM | HCC 2998 > 100 µM | IGROV-1 > 100 µM | KM12 > 100 µM | LOX IMVI > 100 µM | LXFL 529 > 100 µM | M14 > 100 µM | OVCAR-8 > 100 µM | RPMI-8226 > 100 µM | SF-268 > 100 µM | SF-539 > 100 µM | SK-MEL-5 > 100 µM | SNB-19 > 100 µM | U-251 > 100 µM | UACC-257 > 100 µM | UO-31 > 100 µM

Nc1nc2c(ncn2C2OC(CO)C(O)C2N)c(=O)[nH]1 (configuration not stated)
inactive: 786-0 48.2 µM | CAKI-1 > 100 µM | HCC 2998 > 100 µM | IGROV-1 > 100 µM | KM12 > 100 µM | LOX IMVI 60.1 µM | LXFL 529 > 100 µM | M14 > 100 µM | OVCAR-8 > 100 µM | SF-268 > 100 µM | SF-539 > 100 µM | SNB-19 > 100 µM | U-251 > 100 µM | UACC-257 > 100 µM | UO-31 > 100 µM

N#CC(C(=O)CCC(=O)Nc1cccc(Cl)c1)c1ccccc1 (configuration not stated)
inactive: 786-0 > 100 µM | EKVX > 100 µM | HCC 2998 > 100 µM | IGROV-1 > 100 µM | KM12 > 100 µM | LOX IMVI > 100 µM | LXFL 529 > 100 µM | M14 > 100 µM | OVCAR-8 > 100 µM | RPMI-8226 > 100 µM | SF-268 > 100 µM | SF-539 > 100 µM | SK-MEL-5 > 100 µM | SNB-19 4.05 µM | U-251 > 100 µM | UACC-257 > 100 µM | UO-31 > 100 µM

COc1ccc(CCN2CCC(C#N)(c3ccc(OC)c(OC)c3)CC2)cc1OC
inactive: 786-0 > 100 µM | EKVX > 100 µM | HCC 2998 > 100 µM | IGROV-1 > 100 µM | KM12 > 100 µM | LOX IMVI > 100 µM | LXFL 529 > 100 µM | M14 > 100 µM | OVCAR-8 > 100 µM | RPMI-8226 > 100 µM | SF-268 > 100 µM | SF-539 > 100 µM | SK-MEL-5 > 100 µM | SNB-19 > 100 µM | U-251 > 100 µM | UACC-257 > 100 µM | UO-31 > 100 µM

CC(=O)OC1(C#N)CC2OC1C1C2N1C(=O)c1ccccc1 (configuration not stated)
inactive: 786-0 > 100 µM | CAKI-1 > 100 µM | EKVX > 100 µM | HCC 2998 > 100 µM | IGROV-1 > 100 µM | LOX IMVI > 100 µM | LXFL 529 > 100 µM | M14 > 100 µM | OVCAR-8 > 100 µM | RPMI-8226 > 100 µM | SF-268 > 100 µM | SF-539 > 100 µM | SK-MEL-5 > 100 µM | SNB-19 > 100 µM | U-251 > 100 µM | UO-31 > 100 µM

CC(=O)/C=C1/c2ccccc2N(C(C)=O)C1O (configuration not stated)
inactive: 786-0 > 100 µM | CAKI-1 > 100 µM | EKVX > 100 µM | HCC 2998 > 100 µM | IGROV-1 > 100 µM | KM12 > 100 µM | LXFL 529 > 100 µM | M14 > 100 µM | OVCAR-8 > 100 µM | RPMI-8226 > 100 µM | SF-539 > 100 µM | SNB-19 > 100 µM | U-251 > 100 µM | UACC-257 > 100 µM | UO-31 > 100 µM

C=CCN(N=O)C(=O)NCCCCC(NC(C)=O)C(=O)NCc1ccccc1 (configuration not stated)
inactive: 786-0 > 100 µM | CAKI-1 > 100 µM | EKVX > 100 µM | IGROV-1 > 100 µM | KM12 > 100 µM | LOX IMVI > 100 µM | LXFL 529 > 100 µM | M14 > 100 µM | OVCAR-8 > 100 µM | RPMI-8226 > 100 µM | SF-268 > 100 µM | SF-539 > 100 µM | SK-MEL-5 > 100 µM | SNB-19 > 100 µM | U-251 > 100 µM | UACC-257 > 100 µM | UO-31 > 100 µM

COc1ccc(C2=C(Cl)c3cc(OC)c(OC)cc3C2OC)cc1OC (configuration not stated)
inactive: 786-0 11.2 µM | CAKI-1 > 100 µM | EKVX > 100 µM | HCC 2998 > 100 µM | IGROV-1 > 100 µM | KM12 > 100 µM | LOX IMVI 50.2 µM | LXFL 529 52.7 µM | M14 > 100 µM | OVCAR-8 > 100 µM | RPMI-8226 23.8 µM | SF-268 > 100 µM | SF-539 65.2 µM | SK-MEL-5 > 100 µM | SNB-19 > 100 µM | UACC-257 > 100 µM | UO-31 > 100 µM

Cc1cc(NCCCCCCCNc2cc(C)nc3cc(N)ccc23)c2ccc(N)cc2n1
inactive: 786-0 > 100 µM | CAKI-1 > 100 µM | EKVX 55.6 µM | HCC 2998 46.2 µM | KM12 20.7 µM | LOX IMVI 21.6 µM | LXFL 529 26.5 µM | M14 43 µM | OVCAR-8 36.3 µM | RPMI-8226 14.8 µM | SF-268 60.3 µM | SF-539 27 µM | SK-MEL-5 22.2 µM | SNB-19 47.2 µM | U-251 28.1 µM | UACC-257 47.6 µM | UO-31 > 100 µM

CCCCN[C@H]1C2C3CC4C5CC(C42)C1(C)C53 (some centres not stated)
inactive: 786-0 > 100 µM | CAKI-1 > 100 µM | EKVX > 100 µM | HCC 2998 > 100 µM | IGROV-1 > 100 µM | KM12 > 100 µM | LOX IMVI > 100 µM | LXFL 529 > 100 µM | M14 > 100 µM | RPMI-8226 > 100 µM | SF-268 > 100 µM | SF-539 > 100 µM | SK-MEL-5 > 100 µM | SNB-19 > 100 µM | U-251 > 100 µM | UACC-257 > 100 µM | UO-31 > 100 µM

COC(=O)c1ccc(N/C=C(/C#N)c2ccsc2)cc1
inactive: 786-0 11.1 µM | CAKI-1 15.1 µM | EKVX 15.9 µM | HCC 2998 18.4 µM | IGROV-1 27.1 µM | KM12 12.9 µM | LXFL 529 12.8 µM | OVCAR-8 6.61 µM | RPMI-8226 20.7 µM | SF-268 10.9 µM | SF-539 15.9 µM | SNB-19 12.2 µM | U-251 6.92 µM | UACC-257 32.6 µM | UO-31 14.4 µM

— ChEMBL document CHEMBL1201862, “PubChem BioAssay data set” (2004)
